# From article PMC2990605 (British Journal of Cancer, 2010)
# Entries after “also recorded” stand apart in the source; their conditions may differ.
# Experiments:
# [1] = Dose-limiting toxicity and maximum tolerated dose of the paclitaxel/tosedostat combination; type: in vivo, patients
# Procedure: The starting dose of CHR-2797 was 90 mg daily, below the MTD.
# Toxicity was evaluated according to common toxicity criteria for adverse events (CTCAEv3.0). The MTD was defined as the dose level(s) at which at least two out of six patients developed DLT.
# [2] = test system: advanced solid malignancies; experiment: Antitumour activity, Response Evaluation Criteria in Solid Tumors; type: in vivo, patients; details: tosedostat with paclitaxel
# Procedure: Response was evaluated according to Response Evaluation Criteria in Solid Tumors ([Therasse et al, 2000]) after every second cycle.
# [3] = test system: relapsed/refractory AML; design: method as in Ossenkoppele et al, 2009; Reid et al, 2009; details: tosedostat monotherapy, ref Ossenkoppele et al, 2009, Reid et al; cited from earlier work
# [4] = test system: cancer cell lines; design: method as in Jenkins et al, 2007; Moore et al, 2009; details: wide range of cancer cell lines in vitro; ref Jenkins et al, 2007; Moore et al, 2009; cited from earlier work
# [5] = test system: transformed cells; design: method as in Krige et al, 2008; details: in vitro and in vivo experiments; ref Krige et al, 2008; cited from earlier work
# [6] = Plasma pharmacokinetics of tosedostat, CHR-79888 and paclitaxel (LC-MS/MS, noncompartmental); details: for AUC(0-t) / Cmax / Tmax / half-life / Vd/F: human, oral, mean (±s.e.m.); for AUC(0-t): AUC0−t; for half-life: T½; for Vd/F: Vz/F
# Procedure: On day 21, samples were taken until 8 h post-dose; the day 22 predose sample was used as the 24 h sample of day 21. […] Peak plasma concentrations (Cmax), overall drug exposure (AUC), and terminal plasma half-life (t½) were calculated using noncompartmental methods using WinNonlin Professional software (version 4.1, Pharsight Corporation, St Louis, MO, USA). Pharmacokinetics analysis, with reference to possible interactions, was descriptive.
# [7] = plasma, 90 mg, cohort 1: CHR-2797 90 mg, paclitaxel 135 mg m^−2, day 21, tosedostat without paclitaxel, plasma
# [8] = plasma, 90 mg, cohort 2: CHR-2797 90 mg, paclitaxel 175 mg m^−2, day 21, tosedostat without paclitaxel, plasma
# [9] = plasma, 130 mg, cohort 3: CHR-2797 130 mg, paclitaxel 175 mg m^−2, day 21, tosedostat without paclitaxel, plasma
# [10] = plasma, 180 mg, cohort 4: CHR-2797 180 mg, paclitaxel 175 mg m^−2, day 21, tosedostat without paclitaxel, plasma
# [11] = plasma, cohort 1: CHR-2797 90 mg, paclitaxel 135 mg m^−2, day 22, tosedostat in combination with paclitaxel, plasma
# [12] = plasma, cohort 2: CHR-2797 90 mg, paclitaxel 175 mg m^−2, day 22, tosedostat in combination with paclitaxel, plasma
# [13] = plasma, cohort 3: CHR-2797 130 mg, paclitaxel 175 mg m^−2, day 22, tosedostat in combination with paclitaxel, plasma
# [14] = plasma, cohort 4: CHR-2797 180 mg, paclitaxel 175 mg m^−2, day 22, tosedostat in combination with paclitaxel, plasma
structure (smiles),measurement,setting,value
CC(C)C[C@@H](C(=O)N[C@H](C(=O)OC1CCCC1)c1ccccc1)[C@H](O)C(=O)NO [tosedostat],DLTs observed in the study,"[1]; all cohorts, 22 patients, tosedostat with paclitaxel",only one DLT observed in 22 patients
same,DLT,"[1]; cohort 5: tosedostat 180 mg combined with paclitaxel 175 mg m^−2, one patient, first 21 days","One DLT (grade 3 dyspnoea); also recorded: CTC grade 3 dyspnoea, with grade 2 fever and persistent grade 3 urinary tract infection"
same,grade 3/4 toxicity in dose-escalation phase,"[1]; cohort 6: 175 mg m^−2 paclitaxel, 240 mg tosedostat, three patients",without any grade 3/4 toxicity
same,MTD of tosedostat combined with paclitaxel,"[1]; tosedostat 90–240 mg daily, paclitaxel 135–175 mg m^−2 every 3 weeks",No formal MTD was determined; also recorded: Formal MTD was never reached; also recorded: not reached
same,response duration of PR,[2]; patient with malignant melanoma,7.2 months
same,response duration of PR,[2]; patient with squamous cell non-small-cell lung cancer,7.1 months
same,response duration of PR,[2]; patient with squamous-cell carcinoma of the oesophagus,1.5 months
same,"stable disease lasting >3 months, patients",[2],12
same,Median (95% CI) duration of s.d.,[2]; 12 patients,5.6 (3–6.5) months
same,"partial response, patients",[2]; 21 assessable patients,3
same,"stable disease, % of patients",[2]; 21 assessable patients,57%
same,"stable disease, patients",[2]; 21 assessable patients,12
same,"partial response, % of patients","[2]; 21 assessable patients, confirmed after ⩾4 weeks",14%
same,response rate,[3],31.4%
same,"combination with chemotherapeutic agents, antiproliferative effects",[4],synergises
same,selectivity,[5],selectivity for transformed over nontransformed cells
same,"effect of paclitaxel coadministration on Cmax, tmax and t½",[6]; day 21 versus day 22,tendency for a decreased Cmax and an increased tmax and t½
same,effect of paclitaxel coadministration on overall exposure (AUC0−t),[6]; day 21 versus day 22,unaffected by paclitaxel administration; also recorded: unaffected by paclitaxel coadministration
same,AUC(0-t),[6]; [7],1140 ng·h/mL
same,AUC(0-t),[6]; [8],1890 ng·h/mL
same,Cmax,[6]; [7],522 ng/mL
same,Cmax,[6]; [8],969 ng/mL
same,Tmax,[6]; [7],1.2 h
same,Tmax,[6]; [8],1.2 h
same,half-life,[6]; [7],1.2 h
same,half-life,[6]; [8],1.3 h
same,Vd/F,[6]; [7],179 L
same,Vd/F,[6]; [8],72 L
same,AUC(0-t),[6]; [9],1920 ng·h/mL
same,Cmax,[6]; [9],880 ng/mL
same,Tmax,[6]; [9],1.7 h
same,half-life,[6]; [9],1.1 h
same,Vd/F,[6]; [9],112 L
same,AUC(0-t),[6]; [10],2520 ng·h/mL
same,Cmax,[6]; [10],1400 ng/mL
same,Tmax,[6]; [10],1.7 h
same,half-life,[6]; [10],1.1 h
same,Vd/F,[6]; [10],123 L
same,AUC(0-t),[6]; [11],896 ng·h/mL
same,AUC(0-t),[6]; [12],1410 ng·h/mL
same,AUC(0-t),[6]; [13],1400 ng·h/mL
same,AUC(0-t),[6]; [14],1710 ng·h/mL
same,Cmax,[6]; [11],289 ng/mL
same,Cmax,[6]; [12],527 ng/mL
same,Cmax,[6]; [13],615 ng/mL
same,Cmax,[6]; [14],399 ng/mL
same,Tmax,[6]; [11],4 h
same,Tmax,[6]; [12],2 h
same,Tmax,[6]; [13],1.3 h
same,Tmax,[6]; [14],4 h
same,half-life,[6]; [11],2.4 h
same,half-life,[6]; [12],3.1 h
same,half-life,[6]; [13],4 h
same,half-life,[6]; [14],3.1 h
same,Vd/F,[6]; [11],258 L
same,Vd/F,[6]; [12],276 L
same,Vd/F,[6]; [13],587 L
same,Vd/F,[6]; [14],471 L
same,PK interaction between tosedostat and paclitaxel,[6]; in vivo,no PK interaction
same,overall exposure versus dose,"[6]; tosedostat 90–180 mg, plasma",increased in a dose proportional manner
